Values of other authors as cited in US9421272B2, “Nanocarrier compositions and methods” (RUTGERS, THE STATE UNIVERSITY OF NEW JERSEY, priority 2009, dated 2016).

How the values were obtained:
[1] = disulfide bond; relative to cysteamine linker
PepT1 = molecular target: T1, PepT1 (Homo sapiens, UniProt P46059); conditions: interaction between valacyclovir and PepT1
T1 sequence (P46059 1-708): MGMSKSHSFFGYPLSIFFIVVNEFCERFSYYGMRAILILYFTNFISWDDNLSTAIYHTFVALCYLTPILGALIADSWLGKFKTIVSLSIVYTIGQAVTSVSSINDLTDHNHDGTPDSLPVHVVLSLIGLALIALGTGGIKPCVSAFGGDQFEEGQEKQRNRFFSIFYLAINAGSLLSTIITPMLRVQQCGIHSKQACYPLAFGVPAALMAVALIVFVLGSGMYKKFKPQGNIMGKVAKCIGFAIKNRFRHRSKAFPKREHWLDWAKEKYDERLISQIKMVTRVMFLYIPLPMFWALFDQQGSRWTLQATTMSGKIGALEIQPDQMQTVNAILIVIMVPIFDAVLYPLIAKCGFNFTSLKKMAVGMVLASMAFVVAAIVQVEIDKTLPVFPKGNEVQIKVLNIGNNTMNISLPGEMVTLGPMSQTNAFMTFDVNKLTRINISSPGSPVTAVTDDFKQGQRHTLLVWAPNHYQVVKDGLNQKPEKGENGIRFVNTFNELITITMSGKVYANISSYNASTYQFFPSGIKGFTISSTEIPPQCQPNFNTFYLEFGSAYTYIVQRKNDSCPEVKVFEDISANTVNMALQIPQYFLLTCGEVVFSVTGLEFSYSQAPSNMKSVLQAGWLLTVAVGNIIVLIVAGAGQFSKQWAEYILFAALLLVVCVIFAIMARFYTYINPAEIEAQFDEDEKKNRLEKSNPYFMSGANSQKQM

[2] = compared to the counterpart with a 5 kDa linear PEG

Molecule: CC(C)(S)CN [1-amino-2-methyl-2-propanethiol]
- degradation rate, slower than the corresponding less hindered cysteamine linker [1]: about 100 times

Molecule: CC(C)[C@H](N)C(=O)OCCOCn1cnc2c(=O)[nH]c(N)nc21 [valacyclovir]
- increase in the bioavailability of acyclovir (PepT1): three to four-fold increase

B1: branched 10 kDa PEG to asparaginase: asparaginase bound to a branched 10 kDa PEG (conjugate, UniProt P00805 23-348, looked up)
L-asparaginase 2: LPNITILATGGTIAGGGDSATKSNYTVGKVGVENLVNAVPQLKDIANVKGEQVVNIGSQDMNDNVWLTLAKKINTDCDKTDGFVITHGTDTMEETAYFLDLTVKCDKPVVMVGAMRPSTSMSADGPFNLYNAVVTAADKASANRGVLVVMNDTVLDGRDVTKTNTTDVATFKSVNYGPLGYIHNGKIDYQRTPARKHTSDTPFDVSKLNELPKVGIVYNYANASDLPAKALVDAGYDGIVSAGVGNGNLYKSVFDTLATAAKTGTAVVRSSRVPTGATTQDAEVDDAKYGFVASGTLNPQKARVLLQLALTQTKDPQQIQQIFNQY
modifications: branched 10 kDa PEG
- reduction of antigenicity [2]: 10 fold
